Data as given in patent US8314255B2, “Use of phthalimide and/or sulphonamide derivatives in the treatment of diseases which require reducing the TNF- α levels and an exogenous source of nitric oxide, phthalimide derivatives, sulphonamide derivatives, and a method for obtaining a sulphonamide derivative” (priority 2007, dated 2012).
Values joined by “and” are separate entries in the source; they are usually repeats but may differ in a detail not shown here. Identical values can stand only once. Marks after values point to notes of the source that are not given here.

Assays:
Assay type in all cases: in vivo
[1] = system: leukocyte infiltration, peritonitis induced by thioglycolate; assay: Peritonitis assay induced by 3% thioglycolate; details: 300 μMol/Kg orally, mouse, 3% thioglycolate i.p., 4 h
Method: In a second assay, the number of total leukocytes (10^6/mL) was evaluated in order to evaluate the ability to inhibit their infiltration in the inflammatory process.
The mice were treated with the substances being analyzed or carrier and after 1 h of oral administration, they were simultaneously subjected to the peritonitis assay, by administering intraperitoneally 1 ml of a 3% thioglycolate solution. 4 h after the administration of thioglycolate, the peritoneal cavity was washed with 3 ml of a HANKS solution (Balanced salt solution, free of Ca^2+ and Mg^2+). Next, the peritoneal wash was analyzed and the total counting of white blood cells was made in a Newbauer's chamber under an optical microscope with a 40× objective.

[2] = system: mouse ear edema induced by capsaicin; assay: Mouse ear edema assay induced by capsaicin; details: 300 μmol/Kg i.p., capsaicin 250 μg/ear 1 hour after administration
Method: This assay is characterized by an acute inflammatory response of the ear, with development of edema, and it was performed in order to evaluate the anti-inflammatory activity of the synthesized compounds.
In this assay, indomethacin was used as a control at 100 μmol/Kg, and the phthalimide derivatives were firstly evaluated at 300 μmol/Kg via i.p. From table 4, it can be observed that compounds IC and IE show an ear edema inhibition percentage higher than 64%. […] The other compounds, however, show a similar activity when compared to indomethacin (FIG. 01), taking into consideration the standard error.
This assay was performed using Swiss mice from both genders weighing from 18 to 30 grams. The animals were fasted for 8 hours with free access to water. This assay consists in locally administering (right ear) 20 μl of a capsaicin solution (250 μg/ear) diluted in acetone, 1 hour after the i.p. administration (diluted in 0.5% gum arabic). The left ear (control) received the carrier in which capsaicin was diluted (acetone) and the right ear received capsaicin. This assay is characterized by an acute inflammatory response of the ear, with development of edema. The animals were sacrificed and their ears were weighted to obtain the inflammation index. A biopsy (8 mm in diameter) of the ear was carried out. Next, the weights of the inflamed ears were compared against the weights of the contralateral ear (control ear) which were not treated with the phlogistic agent. The edema inhibition percentage was calculated by subtracting the ear treated with the carrier by that treated with capsaicin from each group of animals treated with the test substances, and then it was divided by the difference between the groups of the irritating agents and the control groups.

[3] = system: abdominal writhing induced by acetic acid; assay: Abdominal writhing assay induced by acetic acid; details: oral, mice, acetic acid 0.1N i.p. after 1 hour, writhings counted during 20 minutes
Method: In order to evaluate the peripheral analgesic activity of the compounds, an abdominal writhing assay induced by acetic acid (Table 6) was carried out. In this assay, we could infer that compound ID has an important analgesic activity, inhibiting abdominal writhing by 66%. […] The analgesic activity may be related to the ability of these compounds to inhibit the cytokine TNFα, since it is known that this would be one of the mechanisms that explain the analgesia of molecules such as thalidomide.
The antinociceptive profile was evaluated through the abdominal writhing assay induced by acetic acid in mice. In this assay, Swiss mice from both genders were used, weighing from 21 to 28 grams, fasted for a time period of about 8 hours. The test substance was administered orally and had, as a carrier, 5% gum arabic. After 1 hour, the administration of acetic acid 0.1N (0.1 mL/10 g weight) was performed in the peritoneal cavity of the animals. Ten minutes after the injection of acetic acid, writhings were counted during 20 minutes.

| Compound | Cell Number avg (×106), total leukocytes [1] | Inhibition % (leukocyte infiltrate) [1] | Average inhibition % (ear edema) [2] | Average (abdominal writhings) [3] | Inhibition % (abdominal writhing) [3] |
| --- | --- | --- | --- | --- | --- |
| O=C1c2ccccc2C(=O)N1c1ccc(CO[N+](=O)[O-])cc1 [ID, 4-(1,3-dioxo-1,3-dihydro-2H-isoindol-2-yl)benzyl nitrate] | 3.8 ×106 | 32.14% | 37.18% | 16.2 | 66% and 66.03% |
| Nc1ccc(S(=O)(=O)NO)cc1 [Compound IIA, 4-amino-N-hydroxybenzenesulphonamide] | 4.0 ×106 | 28.57% | 49.24% | 30.4 |  |
| O=C1c2ccccc2C(=O)N1CCO[N+](=O)[O-] [IB, 2-(1,3-dioxo-1,3-dihydro-2H-isoindol-2-yl)ethyl nitrate] | 2.73 ×106 | 51.25* % | 46.55% | 39.2 | 23.22% |
| O=C1c2ccccc2C(=O)N1CO[N+](=O)[O-] [Compound IA, (1,3-dioxo-1,3-dihydro-2H-isoindol-2-yl)methyl nitrate] | 4.9 ×106 | 12.5% | 53.75% | 28.6 |  |
| O=C1c2ccccc2C(=O)N1c1ccc(CCO[N+](=O)[O-])cc1 [Compound IE, 2-[4-(1,3-dioxo-1,3-dihydro-2H-isoindol-2-yl)phenyl]ethyl nitrate] | 4.13 ×106 | 26.25% |  |  |  |
